Earlier results on 4 molecules are cited in patent publication US20220142892A1, “PROCESS FOR THE PREPARATION AND USE OF HAIR TREATMENT COMPOSITIONS CONTAINING ORGANIC C1-C6 ALKOXY SILANES” (Henkel AG & Co. KGaA, priority 2019, published 2022).

Each structure is given as a SMILES string.

For this data set the following is noted: 25° C.

`O=C([O-])C1=NN(c2ccc(S(=O)(=O)[O-])cc2)C(=O)C1N=Nc1ccc(S(=O)(=O)[O-])cc1.[Na+].[Na+].[Na+]` (stereo not shown) [Acid Yellow 23, trisodium salt of 4,5-dihydro-5-oxo-1-(4-sulfophenyl)-4-((4-sulfophenyl)azo)-1H-pyrazole-3-carboxylic acid]: the “solubility in water (in words)” value was “highly soluble”.
On to `Nc1cc(S(=O)(=O)[O-])cc2cc(S(=O)(=O)[O-])c(N=Nc3ccccc3)c(O)c12.[Na+].[Na+]` [Acid Red 33, diantrium salt of 5-amino-4-hydroxy-3-(phenylazo)-naphthalene-2,7-disulphonate], for which the solubility in water is 2500 µg/mL.
With `O=C([O-])c1c(Cl)c(Cl)c(Cl)c(Cl)c1-c1c2c(Br)cc(=O)c(Br)c-2oc2c(Br)c(O)cc(Br)c12.O=C([O-])c1c(Cl)c(Cl)c(Cl)c(Cl)c1-c1c2c(Br)cc(=O)c(Br)c-2oc2c(Br)c(O)cc(Br)c12.[Na+].[Na+]` [Acid Red 92, disodium salt of 3,4,5,6-tetrachloro-2-(1,4,5,8-tetrabromo-6-hydroxy-3-oxoxanthen-9-yl)benzoic acid], the solubility in water entry is “greater than 10 g/L”.
Consider `O=S(=O)([O-])c1ccc(N=Nc2c(O)ccc3ccccc23)cc1.[Na+]` [Acid Orange 7, sodium salt of 4-[(2-hydroxy-1-naphthyl)azo]benzene sulphonate], for which the solubility in water entry was “more than 7 g/L”.
